Experimental data reported in ChEMBL document CHEMBL2062511, “Synthesis and anti-HIV activities of symmetrical dicarboxylate esters of dinucleoside reverse transcriptase inhibitors” (Bioorg Med Chem Lett, 2012).

Key:
[1] = Therapeutic index, ratio of TC50 for human CEM-SS cells to EC50 for HIV-1 subtype 3B infected in CEM-SS cells; assay type: cell-based; conditions: uninfected and infected with HIV-1 subtype 3B, read-out: TI
[2] = Therapeutic index, ratio of TC50 for human PBMC to EC50 for HIV-1 subtype B US/92/727 infected in PBMC; conditions: uninfected and infected with HIV-1 subtype B US/92/727, read-out: TI
[3] = Cytotoxicity against human PBMC; assay type: cell-based; conditions: read-out: TC50 (the source's name)
[4] = Cytotoxicity against human CEM-SS cells by XTT method; assay type: cell-based; conditions: read-out: TC50 (the source's name)
[5] = system: Human immunodeficiency virus 1; assay: Antiviral activity against HIV-1 subtype B US/92/727 infected in PBMC assessed as inhibition of viral replication after 7 days by XTT assay; assay type: functional, organism-based; conditions: Human immunodeficiency virus 1, subtype B US/92/727, 168 h
[6] = system: Human immunodeficiency virus 1; assay: Ratio of FLT EC50 to compound EC50 for HIV-1 subtype 3B infected in CEM-SS cells; assay type: functional
[7] = system: Human immunodeficiency virus 1; assay: Antiviral activity against HIV-1 subtype 3B infected in CEM-SS cells assessed as inhibition of viral replication after 6 days by XTT assay; assay type: functional, organism-based; conditions: Human immunodeficiency virus 1, subtype 3B, 144 h
[8] = system: Human immunodeficiency virus 1; assay: Ratio of FLT EC50 to compound EC50 for HIV-1 subtype B US/92/727 infected in PBMC; assay type: functional
[9] = system: Human immunodeficiency virus 1; assay: Ratio of 3TC EC50 to compound EC50 for HIV-1 subtype 3B infected in CEM-SS cells; assay type: functional
[10] = system: Human immunodeficiency virus 1; assay: Ratio of 3TC EC50 to compound EC50 for HIV-1 subtype B US/92/727 infected in PBMC; assay type: functional
[11] = system: Human immunodeficiency virus 1; assay: Ratio of AZT EC50 to compound EC50 for HIV-1 subtype B US/92/727 infected in PBMC; assay type: functional

SMILES | selectivity ratio [1] | selectivity ratio [2] | CC50 [3] [nM] | CC50 [4] [nM] | EC50 [5] [nM] | Ratio EC50 [6] | EC50 [7] [nM] | Ratio EC50 [8] | Ratio EC50 [9] | Ratio EC50 [10] | Ratio EC50 [11]
Cc1cn([C@H]2C[C@H](F)[C@@H](COC(=O)CCCCCCCCC(=O)OC[C@H]3O[C@@H](n4cc(C)c(=O)[nH]c4=O)C[C@@H]3F)O2)c(=O)[nH]c1=O | > 250 | > 1000 | > 1000 | > 1000 | 1 | 5 | 4 |  |  |  | 
Cc1cn([C@H]2C[C@H](F)[C@@H](COC(=O)CCCCCCCCCCC(=O)OC[C@H]3O[C@@H](n4cc(C)c(=O)[nH]c4=O)C[C@@H]3F)O2)c(=O)[nH]c1=O | > 250 | > 1030 | > 1000 | > 1000 | 0.97 | 5 | 4 | 2 |  |  | 
Cc1cn([C@H]2C[C@H](F)[C@@H](COC(=O)CCCCCCCCCCCCC(=O)OC[C@H]3O[C@@H](n4cc(C)c(=O)[nH]c4=O)C[C@@H]3F)O2)c(=O)[nH]c1=O | > 333 | > 1320 | > 1000 | > 1000 | 0.76 | 5 | 3 | 2 |  |  | 
Cc1cn([C@H]2C[C@H](N=[N+]=[N-])[C@@H](COC(=O)CCCCCCCCC(=O)OC[C@H]3O[C@@H](n4cc(C)c(=O)[nH]c4=O)C[C@@H]3N=[N+]=[N-])O2)c(=O)[nH]c1=O | > 200 | > 250 | > 1000 | > 1000 | 4 |  | 5 |  |  |  | 
Cc1cn([C@H]2C[C@H](N=[N+]=[N-])[C@@H](COC(=O)CCCCCCCCCCC(=O)OC[C@H]3O[C@@H](n4cc(C)c(=O)[nH]c4=O)C[C@@H]3N=[N+]=[N-])O2)c(=O)[nH]c1=O | > 250 | > 500 | > 1000 | > 1000 | 2 |  | 4 |  |  |  | 
Cc1cn([C@H]2C[C@H](N=[N+]=[N-])[C@@H](COC(=O)CCCCCCCCCCCCC(=O)OC[C@H]3O[C@@H](n4cc(C)c(=O)[nH]c4=O)C[C@@H]3N=[N+]=[N-])O2)c(=O)[nH]c1=O | > 333 | > 333 | > 1000 | > 1000 | 3 |  | 3 |  |  |  | 
Nc1ccn([C@@H]2CS[C@H](COC(=O)CCC(=O)OC[C@@H]3O[C@H](n4ccc(N)nc4=O)CS3)O2)c(=O)n1 | > 7.7 | > 7 | > 1000 | > 1000 | 150 |  | 130 |  |  |  | 
Nc1ccn([C@@H]2CS[C@H](COC(=O)CCCCCCCCC(=O)OC[C@@H]3O[C@H](n4ccc(N)nc4=O)CS3)O2)c(=O)n1 | > 33 | > 17 | > 1000 | > 1000 | 60 |  | 30 |  | 1.5 | 1.5 | 
Nc1ccn([C@@H]2CS[C@H](COC(=O)CCCCCCCCCCC(=O)OC[C@@H]3O[C@H](n4ccc(N)nc4=O)CS3)O2)c(=O)n1 | > 333 | > 50 | > 1000 | > 1000 | 20 |  | 9 |  |  |  | 
Nc1ccn([C@@H]2CS[C@H](COC(=O)CCCCCCCCCCCCC(=O)OC[C@@H]3O[C@H](n4ccc(N)nc4=O)CS3)O2)c(=O)n1 | > 333 | > 33 | > 1000 | > 1000 | 30 |  | 3 |  | 3 | 3 | 
Cc1cn([C@H]2C[C@H](F)[C@@H](CO)O2)c(=O)[nH]c1=O [ALOVUDINE] | > 25 | > 250 | > 500 | > 500 | 2 | 4 | 20 |  |  |  | 45
Nc1ccn([C@@H]2CS[C@H](CO)O2)c(=O)n1 [LAMIVUDINE] | > 2.5 | > 5.6 | > 500 | > 500 | 90 |  | 200 |  |  |  | 
Cc1cn([C@H]2C[C@H](N=[N+]=[N-])[C@@H](CO)O2)c(=O)[nH]c1=O [ZIDOVUDINE] | > 250 | > 125 | > 1000 | > 500 | 8 |  | 2 |  |  |  | 
